Where two headings read alike, the source gives them in different places.
Key:
[1] = logP determination by HPLC (EEC-Directive 79/831 Annex V. A8, gradient method); type: physicochemical; conditions: for chromatographic logP: value printed in preparation example text, read-out: HPLC: log P; for logP: gradient method, acetonitrile/0.1% aqueous phosphoric acid
[2] = tested on: Erysiphe graminis f sp. tritici; experiment: Erysiphe test (wheat)/protective; type: in vivo; conditions: protective, 500 g/ha, assessment 7 days after inoculation
Description: [table] One part by weight of active substance is mixed with the specified quantities of solvent and emulsifier and the concentrate diluted with water to the desired concentration to prepare a suitable active substance preparation. To test the protective efficiency, young plants are sprayed with the active substance preparation in the specified amount. After drying the spray coating, the plants are dusted with spores of Erysiphe graminis f sp. tritici. The plants are then placed in a glasshouse at a temperature of about 20° C. and a relative humidity of about 80% to promote the development of mildew pustules. The assessment is made 7 days after the inoculation. In this situation 0% means an efficiency corresponding to that of the control whereas an efficiency of 100% means that no attack is observed.

| Structure (SMILES) | logP [1] | also measured |
| --- | --- | --- |
| C[C@H](Nc1c(-c2ncccc2C(F)(F)F)c(Cl)nc2ncnn12)C(F)(F)F [Example 1, N-{5-chloro-6-[3-(trifluoromethyl)-2-pyridinyl][1,2,4]triazolo[1,5-a]pyrimidin-7-yl}-N-[(1 S)-2,2,2-trifluor-1-methylethyl]amine] | – | chromatographic logP [1]: 2.22 |
| C[C@H](Nc1c(-c2ncncc2Cl)c(Cl)nc2ncnn12)C(F)(F)F [Example 2, N-[5-chloro-6-(5-chloro-4-pyrimidinyl)[1,2,4]triazolo[1,5-a]pyrimidin-7-yl]-N-[(1S)-2,2,2-trifluoro-1-methylethyl]amine] | – | chromatographic logP ([1]; HPLC (gradient method, EEC-Directive 79/831 Annex V. A8)): 1.98; efficiency [2]: higher than 90% |
| CC(C)CNc1c(-c2ncc(C(F)(F)F)cc2F)c(Cl)nc2ncnn12 [Example 3] | 2.85 | – |
| C=C(C)CN(CC)c1c(-c2ncc(C(F)(F)F)cc2F)c(Cl)nc2ncnn12 [Example 4] | 3.51 | – |
| CC(Nc1c(-c2ncc(C(F)(F)F)cc2F)c(Cl)nc2ncnn12)C(F)(F)F (stereo not shown) [Example 6] | 2.91 | – |
| CC(C)C(C)Nc1c(-c2ncc(C(F)(F)F)cc2F)c(Cl)nc2ncnn12 (stereo not shown) [Example 7] | 3.13 | – |
| C[C@@H](Nc1c(-c2ncncc2Cl)c(Cl)nc2ncnn12)C(F)(F)F [Example 8] | 1.98 | – |
| CC(C)C(C)Nc1c(-c2ncccc2C(F)(F)F)c(Cl)nc2ncnn12 (stereo not shown) [Example 11] | 2.53 | – |
| CC(C)C(C)Nc1c(-c2ncncc2Cl)c(Cl)nc2ncnn12 (stereo not shown) [Example 13] | 2.16 | – |
